IC50 data for 19 compounds are collected here from patent US11414428B2, “Inhibitors of tryptophan dioxygenases (IDO1 and TDO) and their use in therapy” (Auckland UniServices Limited, priority 2015, dated 2022).

The target of data set [1] is Recombinant human IDO1 (rhIDO1) (Homo sapiens (Human), UniProt P14902). The data set can be described thus: Enzymatic assay for IDO1 activity. The class given is biochemical. Conditions: rhIDO1 9 nM, 80 μM TRP, 37° C. 30 min. As for the experimental part:
Recombinant human IDO1 (rhIDO1) was expressed and purified from cultures of EC538 strain of E. coli transformed with pREP4 and pQE9-IDO plasmid. Reaction mixes were set up in 384-well microplates containing 50 mM phosphate buffer, 10 mM ascorbic, 10 μM methylene blue, 100 μg/mL catalase, 80 μM TRP, 0.01% Tween 20 (v/v) mixed with rhIDO1 (15 μL) at a final concentration of 9 nM in a total volume of 30 μL assay medium. The plates were incubated at 37° C. for 30 min, and the enzymatic reaction was terminated by adding piperidine (200 mM) and heated at 65° C. for 20 min. Fluorescence intensity was read at λex 400 nm and λem 500 nm. Test compounds were dissolved in 100% DMSO and pre-diluted in assay medium prior to adding rhIDO1. IDO1 inhibition (%) was calculated as
[formula] All experiments were carried out in triplicates, and statistical Analyses were conducted in Prism v5 (Graphpad Software, Inc., La Jolla, Calif., USA). Cell-Based Assay for IDO1 Inhibition

The nature of data set [2]: Cell viability (MTT colourimetric assay) in the IDO1 cell-based assay. Conditions: mouse, same experiment as cellular IDO1 assay, read-out: Cell cytotoxicity IC50. As for the experimental part: The viability of the cells in each well in the same experiment was determined using the 3-(4,5-dimethylthiazolyl-2-yl)-2,5-diphenyltetrazolium bromide ([…]) colourimetric assay. After the removal of the supernatant for determination of IDO1 inhibition, the cells were incubated with MU (500 μg/mL) until crystal formation was observed. Plates were centrifuged for 15 min at 2500 g, and then all the supernatant in then wells was discarded. DMSO (100 μL/well) was added to dissolve the crystals and then the absorbance in each well was measured at 570 nm. Cell viability in each well was expressed as a percentage of untreated controls. Triplicate cultures were used for all experiments unless stated otherwise.
For orientation: Tetrazolium dyes change colour on reduction, which living cells bring about.

A short description of data set [3]: Cell viability (MTT colourimetric assay) in the TDO cell-based assay. Conditions: mouse, same experiment as cellular TDO assay, read-out: Cell cytotoxicity IC50. On the procedure:
The viability of the cells in each well in the same experiment was determined using the 3-(4,5-dimethylthiazolyl-2-yl)-2,5-diphenyltetrazolium bromide ([…]) colourimetric assay.

Data set [4] addresses full length human TDO (GL261 cells) (Homo sapiens (Human), UniProt P48775). The data set can be described thus: Cell-based assay for TDO inhibition. To be noted: GL261 cells over-expressing human TDO, 24 h; read-out: Cellular IC50. As for the experimental part: Culture supernatant from each well was then transferred into a fresh, flat-bottomed 96-well plate, and kynurenine content was determined as described above for the IDO1 assay, and the concentration that inhibited 50% cellular enzyme activity was calculated.

pIC50: −log10 of the molar value. Bounds are passed on as bounds.

Chain of Recombinant human IDO1 (rhIDO1) (P14902 whole entry): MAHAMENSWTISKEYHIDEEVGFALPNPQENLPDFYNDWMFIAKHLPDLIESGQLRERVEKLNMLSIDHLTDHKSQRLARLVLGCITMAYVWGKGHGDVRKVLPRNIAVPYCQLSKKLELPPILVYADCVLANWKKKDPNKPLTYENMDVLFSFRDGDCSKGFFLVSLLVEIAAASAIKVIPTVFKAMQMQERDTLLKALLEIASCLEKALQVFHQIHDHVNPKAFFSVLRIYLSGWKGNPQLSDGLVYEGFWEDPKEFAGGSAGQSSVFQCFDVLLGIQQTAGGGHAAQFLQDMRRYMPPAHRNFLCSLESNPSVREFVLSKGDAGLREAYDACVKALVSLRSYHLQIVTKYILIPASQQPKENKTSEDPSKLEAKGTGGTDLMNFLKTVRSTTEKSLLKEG
Chain of full length human TDO (GL261 cells) (P48775 whole entry): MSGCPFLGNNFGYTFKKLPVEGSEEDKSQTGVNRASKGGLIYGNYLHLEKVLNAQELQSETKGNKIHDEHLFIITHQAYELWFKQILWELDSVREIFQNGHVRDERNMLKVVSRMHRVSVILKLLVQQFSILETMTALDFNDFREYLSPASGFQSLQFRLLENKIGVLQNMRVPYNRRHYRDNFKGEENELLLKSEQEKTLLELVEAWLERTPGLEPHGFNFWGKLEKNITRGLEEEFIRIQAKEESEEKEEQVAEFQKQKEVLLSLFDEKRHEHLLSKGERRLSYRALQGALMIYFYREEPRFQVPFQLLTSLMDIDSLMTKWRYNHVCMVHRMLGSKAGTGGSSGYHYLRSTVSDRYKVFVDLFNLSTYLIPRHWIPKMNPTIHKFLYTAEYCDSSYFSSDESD

`Cc1nc2onc(NC(=O)Nc3ccc(OC(F)(F)F)cc3)c2c(C)c1Cl` [Compound 2, 1-(5-Chloro-4,6-dimethylisoxazolo[5,4-b]pyridin-3-yl)-3-(4-(trifluoromethoxy)phenyl)urea]: the pIC50 in data set [1] and in data set [2] was less than 4.00 in each case.

With `Cc1nc2onc(NC(=O)Nc3ccccc3)c2c(C)c1Cl` [Compound 17, 1-(5-Chloro-4,6-dimethylisoxazolo[5,4-b]pyridin-3-yl)-3-phenylurea], the values for the negative-log IC50 (pIC50) in data set [1] and in data set [2] were 4.00 to 5.00 and less than 4.00, respectively.

With `Cc1nc2onc(NC(=O)Nc3ccccc3C(F)(F)F)c2c(C)c1Cl` [Compound 14, 1-(5-Chloro-4,6-dimethylisoxazolo[5,4-b]pyridin-3-yl)-3-(2-(trifluoromethyl)phenyl)urea], the negative-log IC50 (pIC50) in data set [1] and in data set [2] was less than 4.00 throughout.

Regarding `Cc1nc2onc(NC(=O)Cc3ccc(OC(F)(F)F)cc3)c2c(C)c1Cl` [Compound 19, N-(5-Chloro-4,6-dimethylisoxazolo[5,4-b]pyridin-3-yl)-2-(4-(trifluoromethoxy)phenyl)acetamide], the pIC50 in data set [1] and in data set [2] was less than 4.00 in each case.

Consider `Cc1nc2onc(NC(=O)Nc3cccc(OC(F)(F)F)c3)c2c(C)c1Cl` [Compound 10, 1-(5-Chloro-4,6-dimethylisoxazolo[5,4-b]pyridin-3-yl)-3-(3-(trifluoromethoxy)phenyl)urea], for which the negative-log IC50 (pIC50) in data set [1] and in data set [2] was less than 4.00 each time.

Consider `Cc1nc2onc(NC(=O)Nc3ccc(C#N)cc3)c2c(C)c1Cl` [Compound 3, 1-(5-chloro-4,6-dimethylisoxazolo[5,4-b]pyridin-3-yl)-3-(4-cyanophenyl)urea], for which the negative-log IC50 (pIC50) (as a rule, the negative decadic logarithm of the IC50, by convention in mol/L) in data set [1] is 4.00 to 5.00; in data set [2] it was less than 4.00.

As for `Cc1nc2onc(NC(=O)Nc3cccc(C(F)(F)F)c3)c2c(C)c1Cl` [Compound 15, 1-(5-Chloro-4,6-dimethylisoxazolo[5,4-b]pyridin-3-yl)-3-(3-(trifluoromethyl)phenyl)urea], the negative-log IC50 (pIC50) in data set [1] is less than 4.00; in data set [3], less than 4.00; in data set [4], 4.00 to 5.00; in data set [2], less than 4.00.

`Cc1nc2onc(NC(=O)Nc3ccccc3Cl)c2c(C)c1Cl` [Compound 6, 1-(5-Chloro-4,6-dimethylisoxazolo[5,4-b]pyridin-3-yl)-3-(2-chlorophenyl)urea]: the pIC50 in data set [1] and in data set [2] was less than 4.00 each time.

`Cc1nc2onc(NC(=O)Nc3ccc(Cl)cc3)c2c(C)c1Cl` [Compound 8, 1-(5-Chloro-4,6-dimethylisoxazolo[5,4-b]pyridin-3-yl)-3-(4-chlorophenyl)urea]: the pIC50 in data set [1] and in data set [2] was less than 4.00 each time.

Consider `Cc1nc2onc(NC(=O)Nc3ccc(C(F)(F)F)cc3)c2c(C)c1Cl` [Compound 16, 1-(5-Chloro-4,6-dimethylisoxazolo[5,4-b]pyridin-3-yl)-3-(4-(trifluoromethyl)phenyl)urea], for which the negative-log IC50 (pIC50) in data set [1] and in data set [2] was less than 4.00 throughout.

Consider `Cc1nc2onc(NC(=O)Nc3cccc(Cl)c3)c2c(C)c1Cl` [Compound 7, 1-(5-Chloro-4,6-dimethylisoxazolo[5,4-b]pyridin-3-yl)-3-(3-chlorophenyl)urea], for which the pIC50 in data set [1] and in data set [2] was less than 4.00 each time.

`Cc1nc2onc(NC(=O)Oc3ccccc3)c2c(C)c1Cl` [Compound 4, Phenyl (5-chloro-4,6-dimethylisoxazolo[5,4-b]pyridin-3-yl)carbamate]: the pIC50 in data set [1] is 5.00 to 6.00; in data set [3], less than 4.00; in data set [4], 4.00 to 5.00; in data set [2], less than 4.00.

On to `COc1ccc(NC(=O)Nc2noc3nc(C)c(Cl)c(C)c23)cc1` [Compound 13, 1-(5-Chloro-4,6-dimethylisoxazolo[5,4-b]pyridin-3-yl)-3-(4-methoxyphenyl)urea], for which the pIC50 in data set [1] and in data set [2] was less than 4.00 throughout.

Turning to `COc1cccc(NC(=O)Nc2noc3nc(C)c(Cl)c(C)c23)c1` [Compound 12, 1-(5-Chloro-4,6-dimethylisoxazolo[5,4-b]pyridin-3-yl)-3-(3-methoxyphenyl)urea], the pIC50 in data set [1] and in data set [2] was less than 4.00 each time.

In the case of `Cc1nc2onc(N)c2c(C)c1Cl` [Compound 1, 5-Chloro-4,6-dimethylisoxazolo[5,4-b]pyridin-3-amine], the pIC50 in data set [3] and in data set [2] was less than 4.00 throughout.

In the case of `Cc1nc2onc(NC(=O)Nc3ccccc3OC(F)(F)F)c2c(C)c1Cl` [Compound 9, 1-(5-Chloro-4,6-dimethylisoxazolo[5,4-b]pyridin-3-yl)-3-(2-(trifluoromethoxy)phenyl)urea], the negative-log IC50 (pIC50) in data set [1] and in data set [2] was less than 4.00 in each case.

Turning to `COc1ccccc1NC(=O)Nc1noc2nc(C)c(Cl)c(C)c12` [Compound 11, 1-(5-Chloro-4,6-dimethylisoxazolo[5,4-b]pyridin-3-yl)-3-(2-methoxyphenyl)urea], the negative-log IC50 (pIC50) in data set [1] was 4.00 to 5.00; in data set [2] it was less than 4.00.

As for `Cc1nc2onc(NC(=O)Cc3ccccc3)c2c(C)c1Cl` [Compound 18, N-(5-Chloro-4,6-dimethylisoxazolo[5,4-b]pyridin-3-yl)-2-phenylacetamide], the pIC50 in data set [1] is less than 4.00.

On to `CC(=O)Nc1noc2nc(C)c(Cl)c(C)c12` [Compound 20, N-(5-Chloro-4,6-dimethylisoxazolo[5,4-b]pyridin-3-yl)acetamide], for which the pIC50 in data set [1] and in data set [2] was less than 4.00 each time.
